pIC50: −log10 of the molar value.
Legend:
[1] = cells; conditions: Homo sapiens, MCF-10A, read-out: MCF10A IC50
[2] = target: H1047R PIK3CA enzyme (Homo sapiens, UniProt P42336, H1047R); experiment: ADP-Glo Biochemical PIK3CA Kinase Assay
Sequence of H1047R PIK3CA enzyme (P42336 whole entry H1047R): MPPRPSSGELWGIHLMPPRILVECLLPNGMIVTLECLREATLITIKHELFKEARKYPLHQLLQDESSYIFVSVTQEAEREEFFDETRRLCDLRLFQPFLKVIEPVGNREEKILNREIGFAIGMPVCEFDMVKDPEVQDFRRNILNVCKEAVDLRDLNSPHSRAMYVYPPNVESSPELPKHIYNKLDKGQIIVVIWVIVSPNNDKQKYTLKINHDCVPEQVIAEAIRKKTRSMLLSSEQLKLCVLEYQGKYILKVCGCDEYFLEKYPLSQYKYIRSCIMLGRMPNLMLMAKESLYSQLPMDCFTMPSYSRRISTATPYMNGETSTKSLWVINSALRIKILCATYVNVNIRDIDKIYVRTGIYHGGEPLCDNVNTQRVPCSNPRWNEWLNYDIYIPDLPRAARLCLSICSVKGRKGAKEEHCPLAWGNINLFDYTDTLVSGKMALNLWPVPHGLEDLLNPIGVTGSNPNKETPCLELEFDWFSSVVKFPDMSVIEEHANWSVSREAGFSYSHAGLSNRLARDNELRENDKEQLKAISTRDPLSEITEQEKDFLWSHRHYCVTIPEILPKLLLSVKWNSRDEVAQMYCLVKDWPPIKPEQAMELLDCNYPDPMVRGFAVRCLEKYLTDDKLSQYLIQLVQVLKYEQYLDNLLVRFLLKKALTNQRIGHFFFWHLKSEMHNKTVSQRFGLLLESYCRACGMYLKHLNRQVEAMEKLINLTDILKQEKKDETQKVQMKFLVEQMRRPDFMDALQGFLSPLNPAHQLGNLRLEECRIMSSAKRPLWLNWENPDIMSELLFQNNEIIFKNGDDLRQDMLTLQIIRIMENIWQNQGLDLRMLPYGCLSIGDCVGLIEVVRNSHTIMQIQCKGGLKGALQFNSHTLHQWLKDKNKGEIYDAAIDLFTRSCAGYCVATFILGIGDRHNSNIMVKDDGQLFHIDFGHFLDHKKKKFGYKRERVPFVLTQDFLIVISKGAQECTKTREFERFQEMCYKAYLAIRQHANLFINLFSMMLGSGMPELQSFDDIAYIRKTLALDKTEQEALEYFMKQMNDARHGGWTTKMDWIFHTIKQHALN
Sequence of H1047R PIK3CA enzyme (P27986 whole entry partner): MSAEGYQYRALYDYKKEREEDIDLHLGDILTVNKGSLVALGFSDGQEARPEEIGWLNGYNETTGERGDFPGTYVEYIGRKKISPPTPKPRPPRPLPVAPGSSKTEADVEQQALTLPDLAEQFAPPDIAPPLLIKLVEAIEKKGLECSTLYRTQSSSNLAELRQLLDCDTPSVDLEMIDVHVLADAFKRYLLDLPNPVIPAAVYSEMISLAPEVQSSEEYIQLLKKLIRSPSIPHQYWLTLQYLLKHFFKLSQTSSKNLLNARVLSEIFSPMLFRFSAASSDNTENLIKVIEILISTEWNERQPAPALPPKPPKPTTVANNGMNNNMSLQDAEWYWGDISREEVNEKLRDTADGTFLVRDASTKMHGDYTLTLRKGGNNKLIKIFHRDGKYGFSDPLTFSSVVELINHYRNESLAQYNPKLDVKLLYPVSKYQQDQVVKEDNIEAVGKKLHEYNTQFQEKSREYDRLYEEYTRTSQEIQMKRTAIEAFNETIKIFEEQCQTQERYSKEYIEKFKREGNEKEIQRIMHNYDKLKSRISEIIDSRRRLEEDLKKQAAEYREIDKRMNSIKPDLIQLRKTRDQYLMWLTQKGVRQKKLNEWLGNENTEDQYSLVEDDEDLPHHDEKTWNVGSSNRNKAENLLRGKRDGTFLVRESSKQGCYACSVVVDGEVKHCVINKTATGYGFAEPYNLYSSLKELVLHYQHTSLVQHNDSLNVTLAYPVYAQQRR

| Compound | pIC50 [1] | pIC50 [2] |
| --- | --- | --- |
| O=C(Nc1cc(NC2=NC[C@@H](C(F)(F)F)O2)cc2c1[C@H](c1cc(F)ccc1Cl)NC2=O)c1cc(F)cc(C(F)(F)F)c1 (single isomer, unassigned) [Compound I-2324] | > 6.00 | ≥ 7.00 |
| O=C1NC(c2cc(F)ccc2Cl)c2c(NC(=O)N3CC(O)(C(F)F)c4cc(F)ccc43)cc(F)cc21 (centres unmarked) [Compound I-2622] | 5.30 to 6.00 | ≥ 7.00 |
| O=C(Nc1cc(-c2cn3ncnc3cn2)cc2c1C(c1cc(F)ccc1C(F)F)NC2=O)c1cc(F)cc(Cl)c1 (centres unmarked) [Compound I-2201] | 5.30 to 6.00 | ≥ 7.00 |
| O=C(Nc1cc(-c2cn[nH]c2)nc2c1C(c1cc(F)ccc1Cl)NC2=O)c1cc(F)cc(C(F)(F)F)c1 (centres unmarked) [Compound I-161] | 5.30 to 6.00 | ≥ 7.00 |
| O=C(Nc1cc(N2CCOCC2)cc2c1C(c1cc(F)ccc1Cl)NC2=O)c1cc(F)cc(C(F)(F)F)c1 (centres unmarked) [Compound I-1164] | > 6.00 | ≥ 7.00 |
| Nc1cc(NC(=O)c2cc(F)cc(C(F)(F)F)c2)c2c(c1)C(=O)N[C@H]2c1cc(F)ccc1Cl [Compound I-218] | > 6.00 | ≥ 7.00 |
| COc1ncccc1-c1cc(NC(=O)c2cc(F)cc(C(F)(F)F)c2)c2c(c1)C(=O)NC2c1cc(F)ccc1Cl (centres unmarked) [Compound I-1091] | > 6.00 | ≥ 7.00 |
| N#Cc1cc(NC(=O)N2CC(O)(C(F)(F)F)c3ccccc32)c2c(c1)C(=O)NC2c1cc(F)ccc1Cl (centres unmarked) [Compound I-2473] | > 6.00 | ≥ 7.00 |
| O=C1NC(c2cc(F)ccc2Cl)c2c(NC(=O)N3CC(O)c4ccc(Cl)cc43)cccc21 (mixture of isomers) [Compound I-2464] | 5.00 to 5.30 | ≥ 7.00 |
| C=Cc1cc(NC(=O)c2csc3ccccc23)c2c(c1)C(=O)NC2c1ccccc1C (centres unmarked) [Compound I-100, N-[6-Ethenyl-3-(2-methylphenyl)-1-oxo-2,3-dihydro-1H-isoindol-4-yl]-1-benzothiophene-3-carboxamide] | 5.00 to 5.30 | ≥ 7.00 |
| Cc1ccccc1C1NC(=O)c2cccc(NC(=O)c3csc4ccc(F)cc34)c21 (centres unmarked) [Compound I-26] | 5.30 to 6.00 | 6.30 to 7.00 |
| O=C(Nc1cc(-c2cnc3ncnn3c2)cc2c1[C@H](c1cc(F)ccc1Cl)NC2=O)c1cc(F)cc(C(F)(F)F)c1 [Compound I-1024] | > 6.00 | ≥ 7.00 |
| O=C1NC(c2cc(F)ccc2Cl)c2c(NC(=O)N3CC(O)(C(F)F)c4ccccc43)cccc21 (mixture of isomers) [Compound I-2423] | 5.30 to 6.00 | ≥ 7.00 |
| N#Cc1ccc(-c2cc(NC(=O)c3cc(F)cc(C(F)(F)F)c3)c3c(c2)C(=O)N[C@@H]3c2cc(F)ccc2Cl)cn1 (single isomer, unassigned) [Compound I-1000] | > 6.00 | ≥ 7.00 |
| N#CCCc1cc(NC(=O)N2C[C@H](O)c3cc(F)ccc32)c2c(c1)C(=O)N[C@H]2c1cc(F)ccc1Cl (single isomer, unassigned) [Compound I-2346] | 5.30 to 6.00 | ≥ 7.00 |
| O=C(Nc1cc(-c2cnc3ccccc3n2)cc2c1C(c1cc(F)ccc1Cl)NC2=O)c1cc(F)cc(C(F)(F)F)c1 (centres unmarked) [Compound I-948] | > 6.00 | ≥ 7.00 |
| O=C1N[C@@H](c2cc(F)ccc2Cl)c2c(NC(=O)N3C[C@@](O)(C(F)(F)F)c4cc(F)ccc43)cccc21 (single isomer, unassigned) [Compound I-2518] | > 6.00 | ≥ 7.00 |
| CC(C)(C#N)n1cc(-c2cc(NC(=O)N3C[C@@](O)(C(F)(F)F)c4cc(F)ccc43)c3c(c2)C(=O)N[C@@H]3c2cc(F)ccc2Cl)cn1 (single isomer, unassigned) [Compound I-2613] | > 6.00 | ≥ 7.00 |
| CC(C)(O)c1cc(NC(=O)N2C[C@@H](O)c3ccccc32)c2c(c1)C(=O)N[C@H]2c1cc(F)ccc1Cl (single isomer, unassigned) [Compound I-2124] | 5.30 to 6.00 | ≥ 7.00 |
| O=C1N[C@H](c2cc(F)ccc2Cl)c2c(NC(=O)N3C[C@H](C(F)F)c4ccccc43)cccc21 (single isomer, unassigned) [Compound I-2333] | 5.30 to 6.00 | ≥ 7.00 |
| Cc1coc(Nc2cc(NC(=O)c3cc(F)cc(C(F)(F)F)c3)c3c(c2)C(=O)NC3c2cc(F)ccc2Cl)n1 (centres unmarked) [Compound I-964] | > 6.00 | ≥ 7.00 |
| Cc1ccccc1C1NC(=O)c2cccc(NC(=O)c3nsc4ccccc34)c21 (centres unmarked) [Compound I-13, N-(1-Oxo-3-(o-tolyl)isoindolin-4-yl)benzo[d]isothiazole-3-carboxamide] | 5.30 to 6.00 | 6.30 to 7.00 |
| N#CCc1cc(NC(=O)N2C[C@@H](O)c3cc(F)ccc32)c2c(c1)C(=O)N[C@H]2c1cc(F)ccc1Cl (single isomer, unassigned) [Compound I-2537] | > 6.00 | ≥ 7.00 |
| O=C1N[C@@H](c2cc(F)ccc2Cl)c2c(NC(=O)N3C[C@@](O)(C(F)F)c4ccccc43)cccc21 (single isomer, unassigned) [Compound I-2487] | > 6.00 | ≥ 7.00 |
| O=C1N[C@@H](c2cc(F)ccc2Cl)c2c(NC(=O)N3C[C@H](O)c4cc(F)ccc43)cc(-n3ccccc3=O)cc21 (single isomer, unassigned) [Compound I-2350] | 5.00 to 5.30 | ≥ 7.00 |

| Compound | pIC50 [1] | pIC50 [2] |
| --- | --- | --- |
| O=C1NC(c2cc(F)ccc2Cl)c2c(NC(=O)N3CC(O)(C(F)(F)F)c4ccccc43)cc(Cl)cc21 (mixture of isomers) [Compound I-2483] | > 6.00 | ≥ 7.00 |
| CC(C)(C)OC(=O)N1CC(n2cc(-c3cc(NC(=O)c4cc(F)cc(C(F)(F)F)c4)c4c(c3)C(=O)NC4c3cc(F)ccc3Cl)cn2)C1 (centres unmarked) [Compound I-944] | 5.00 to 5.30 | ≥ 7.00 |
| COCc1cc(NC(=O)c2nsc3ccccc23)c2c(c1)C(=O)NC2c1ccccc1C (centres unmarked) [Compound I-146, N-(6-(Methoxymethyl)-1-oxo-3-(o-tolyl)isoindolin-4-yl)benzo[d]isothiazole-3-carboxamide] | 5.00 to 5.30 | ≥ 7.00 |
| COCc1cc(NC(=O)c2cc(F)cc(C(F)(F)F)c2)c2c(c1)C(=O)N[C@H]2c1cc(F)ccc1Cl [Compound I-691] | > 6.00 | ≥ 7.00 |
| O=C(Nc1cc(CS(=O)(=O)C2CC2)cc2c1C(c1cc(F)ccc1Cl)NC2=O)c1cc(F)cc(C(F)(F)F)c1 (centres unmarked) [Compound I-1081] | > 6.00 | ≥ 7.00 |
| O=C(Nc1cc(-c2ccc3ncnn3c2)cc2c1[C@H](c1cc(F)ccc1Cl)NC2=O)c1cc(F)cc(OC(F)(F)F)c1 (stereo in doubt) [Compound I-1111] | > 6.00 | ≥ 7.00 |
| O=C1NC(c2cc(F)ccc2Cl)c2c(NC(=O)N3CC(O)(C(F)(F)F)c4cc(F)ccc43)cc(F)cc21 (centres unmarked) [Compound I-2623] | > 6.00 | ≥ 7.00 |
| O=C(Nc1cc(NC2=NCC(C(F)(F)F)O2)cc2c1C(c1cc(F)ccc1Cl)NC2=O)c1cc(F)cc(C(F)(F)F)c1 (centres unmarked) [Compound I-2297] | 5.30 to 6.00 | ≥ 7.00 |
| O=C(Nc1cc(C2CC(O)C2)cc2c1C(c1cc(F)ccc1Cl)NC2=O)c1cc(F)cc(C(F)(F)F)c1 (centres unmarked) [Compound I-1019] | > 6.00 | ≥ 7.00 |
| O=C(Nc1cc(-c2ccc3ncncc3c2)cc2c1C(c1cc(F)ccc1Cl)NC2=O)c1cc(F)cc(C(F)(F)F)c1 (centres unmarked) [Compound I-1093] | > 6.00 | ≥ 7.00 |
| N#Cc1cc(NC(=O)N2C[C@@](O)(C(F)(F)F)c3ccccc32)c2c(c1)C(=O)N[C@@H]2c1cc(F)ccc1Cl (single isomer, unassigned) [Compound I-2564] | > 6.00 | ≥ 7.00 |
| O=C1N[C@@H](c2cc(F)ccc2Cl)c2c(NC(=O)N3C[C@@H](O)c4ccccc43)cc(Br)cc21 (single isomer, unassigned) [Compound I-1514] | 5.30 to 6.00 | ≥ 7.00 |
| O=C1NC(c2cc(F)ccc2Cl)c2c(NC(=O)N3CC(O)(C(F)(F)F)c4cc(F)ccc43)cccc21 (centres unmarked) [Compound I-2474] | 5.30 to 6.00 | ≥ 7.00 |
| O=C(Nc1cc(-c2cscn2)cc2c1C(c1cc(F)ccc1Cl)NC2=O)c1cc(F)cc(C(F)(F)F)c1 (centres unmarked) [Compound I-920] | > 6.00 | ≥ 7.00 |
| N#CCc1cc(NC(=O)N2CC(O)(C(F)(F)F)c3ccccc32)c2c(c1)C(=O)NC2c1cc(F)ccc1Cl (mixture of isomers) [Compound I-2585] | > 6.00 | ≥ 7.00 |
| CN(C)c1nc2cc(-c3cc(NC(=O)c4cc(F)cc(C(F)(F)F)c4)c4c(c3)C(=O)NC4c3cc(F)ccc3Cl)ccn2n1 (centres unmarked) [Compound I-2200] | > 6.00 | ≥ 7.00 |
| Cc1cn(-c2cc(NC(=O)N3C[C@](O)(C(F)(F)F)c4cc(F)ccc43)c3c(c2)C(=O)N[C@@H]3c2cc(F)ccc2Cl)cn1 (single isomer, unassigned) [Compound I-2637] | > 6.00 | ≥ 7.00 |
| O=C1NC(c2cc(F)ccc2C(F)F)c2c(NC(=O)N3CC(O)c4cc(F)ccc43)cc(Br)cc21 (centres unmarked) [Compound I-2257] | 5.30 to 6.00 | ≥ 7.00 |
| O=C1N[C@@H](c2cc(F)ccc2Cl)c2c(NC(=O)N3C[C@](O)(C(F)F)c4cc(F)ccc43)cc(F)cc21 (single isomer, unassigned) [Compound I-2635] | > 6.00 | ≥ 7.00 |
| O=C1NC(c2cc(F)ccc2Cl)c2c(NC(=O)c3nsc4ccccc34)cc(Br)cc21 (centres unmarked) [Compound I-144] | 5.00 to 5.30 | ≥ 7.00 |
| O=C(Nc1cc(-c2cc3cnccc3[nH]2)cc2c1C(c1cc(F)ccc1Cl)NC2=O)c1cc(F)cc(C(F)(F)F)c1 (centres unmarked) [Compound I-949] | 5.30 to 6.00 | ≥ 7.00 |
| Cc1ccccc1C1NC(=O)c2cc(N)cc(NC(=O)c3csc4ccccc34)c21 (centres unmarked) [Compound I-34] | 5.30 to 6.00 | ≥ 7.00 |
| Cn1cnnc1Nc1cc(NC(=O)c2cc(F)cc(C(F)(F)F)c2)c2c(c1)C(=O)NC2c1cc(F)ccc1Cl (centres unmarked) [Compound I-1083] | 5.30 to 6.00 | ≥ 7.00 |
| Cn1ccc(-c2cc(NC(=O)c3cc(F)cc(C(F)(F)F)c3)c3c(c2)C(=O)NC3c2cc(F)ccc2Cl)n1 (centres unmarked) [Compound I-947] | > 6.00 | ≥ 7.00 |

— US12581252B2, “Substituted pyrrolo[3,4-b]pyridines as PI3K-α inhibitors” (Relay Therapeutics, Inc., priority 2020, dated 2026)
